Test: cardiovascular CTA (Siemens Sensation 64) contrast enhancement, generated protocol vs standard biphasic protocol
Type: in vivo, patients
Experimental: It was expected that left and right heart contrast enhancement would be more consistent across subjects using the cardiac protocol generation system/method of the present invention as compared to typical methods of establishing protocol parameters. To evaluate the level and consistency of enhancement, cardiac CE CT data from a pilot study were analyzed. Two anatomic regions of interest (the descending aorta and the right ventricle) were identified in each subject's scan (reconstructed at 60% RR interval) via a semi-automatic segmentation algorithm. For every set of axial slices acquired at a single time point, the mean enhancement within each of the regions was computed, yielding time enhancement curves. The influence of a per-patient, contrast injection protocol having a dilution phase on right heart enhancement during cardiac CTA was also studied. Sufficient enhancement for assessment of the right heart allows for the assessment of right heart pathology. […] Standard Errors in the other groups were: uni-phasic (+/−39 HU)), bi-phasic (+/−39 HU), and fixed dilution phase (+/−28 HU). […] Left Heart Enhancement averaged 325 HU+/−80
A study of 20 patients undergoing cardiovascular CTA (Siemens Sensation 64) using injection protocols generated using the system/method of the present invention (Iopimidol 370) and 19 control subjects with a standard biphasic protocol (Iopimidol 370 contrast volume=scan duration×5 ml/s, followed by a 40 ml saline flush) was made. All values of the time enhancement curves were pooled across subjects, and the two groups were compared via unpaired t-tests. The mean enhancements for the protocols generated by the present invention and the biphasic protocols were 357±69 HU and 323±64 HU, respectively (p=10^−8). The right ventricle mean enhancements were 318±85 HU and 212±96 HU (p=10^−21).

## C[C@H](O)C(=O)Nc1c(I)c(C(=O)NC(CO)CO)c(I)c(C(=O)NC(CO)CO)c1I [Iopimidol 370, Iopimidol]
Protocols generated by the present invention, 20 patients
  right ventricle mean enhancement (FIG. 35C): 318±85 HU
Protocols generated by the present invention, 20 patients, time enhancement curve values pooled across subjects
  mean enhancement (descending aorta, FIG. 35B): 357±69 HU
Standard biphasic protocol (contrast volume = scan duration x 5 ml/s, then 40 ml saline flush), 19 control subjects
  mean enhancement (descending aorta, FIG. 35B): 323±64 HU
Standard biphasic protocol, 19 control subjects
  right ventricle mean enhancement (FIG. 35C): 212±96 HU

From patent US10463782B2, “Patient-based parameter generation systems for medical injection procedures” (BAYER HEALTHCARE LLC, priority 2006, dated 2019)
